In patent publication US20180305332A1, “Bispiperidinyl Derivatives as Liver X Receptor Beta Agonists, Compositions, and Their Use” (Merck Sharp & Dohme Corp., priority 2015, published 2018):

Experiments:
[1] = molecular target: T1, GST tagged LXRbeta LBD (ligand binding domain) (Homo sapiens, UniProt P55055); assay: LanthaScreen TR-FRET Liver X Receptor Coactivator Assay, LXR beta-LBD; assay type: biochemical; conditions: relative to reference T0901317; for EC50: Inflection Point (potency), co-activator recruitment, read-out: LXR beta IP; for Emax: read-out: LXR beta act @ max dose (%)
T1 construct: purchased Invitrogen pv4658.pps
T1 sequence (P55055 222-460 limits assumed): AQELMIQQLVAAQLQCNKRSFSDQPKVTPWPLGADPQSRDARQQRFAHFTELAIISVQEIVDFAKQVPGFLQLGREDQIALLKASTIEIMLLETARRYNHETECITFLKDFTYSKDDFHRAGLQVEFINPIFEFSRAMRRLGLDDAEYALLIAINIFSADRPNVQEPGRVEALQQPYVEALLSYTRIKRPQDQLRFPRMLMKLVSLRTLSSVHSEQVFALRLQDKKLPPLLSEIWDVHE
Outline: (§1)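 Values are inflection points (potency) and Emax (efficacy) expressed against reference agonist T0901317. Coactivator recruitment is measured by TR-FRET between terbium anti-GST antibody on the LBD and a fluorescein-labelled peptide, following room-temperature incubation.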

[2] = molecular target: T2, GST tagged LXRalpha LBD (ligand binding domain) (Homo sapiens, UniProt Q13133); assay: LanthaScreen TR-FRET Liver X Receptor Coactivator Assay, LXR alpha-LBD; assay type: biochemical; conditions: relative to reference T0901317; for EC50 / LXR alpha IP (nM): Inflection Point (potency), co-activator recruitment; for EC50: read-out: LXR alpha IP; for Emax: read-out: LXR alpha act @ max dose (%)
T2 construct: purchased Invitrogen pv4655
T2 sequence (Q13133 209-447 limits assumed): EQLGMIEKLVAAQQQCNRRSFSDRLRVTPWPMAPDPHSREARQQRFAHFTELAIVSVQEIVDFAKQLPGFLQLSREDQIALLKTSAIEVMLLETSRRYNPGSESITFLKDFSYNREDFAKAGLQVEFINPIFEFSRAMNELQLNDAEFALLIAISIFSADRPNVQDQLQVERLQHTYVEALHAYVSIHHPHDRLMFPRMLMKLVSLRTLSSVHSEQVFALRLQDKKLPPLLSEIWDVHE
Outline: as §1

[3] = activity at max dose (efficacy)

| Compound | EC50 [1] | Emax [1, 3] | EC50 [2] | Emax [2, 3] | LXR alpha IP (nM) [2] | LXR beta act @ max dose (%) [1, 3] | LXR alpha act @ max dose (%) [2, 3] |
| --- | --- | --- | --- | --- | --- | --- | --- |
| CC(C)C(O)(C(=O)N1CCC(C2CCN(c3cc(F)c(C(=O)N(C)C)c(F)c3)CC2)CC1)C(F)(F)F [Example D-1, 2,6-difluoro-4-{1′-[2-hydroxy-3-methyl-2-(trifluoromethyl)butanoyl]-4,4′-bipiperidin-1-yl}-N,N-dimethylbenzamide] | 157 nM | 101% | 1450 nM | 43% |  |  |  |
| CN(C)C(=O)c1c(Cl)cc(N2CCC(C3CCN(C(=O)[C@](O)(c4ccccc4)C(F)(F)F)CC3)CC2)cc1Cl [Example A-33, 2,6-dichloro-N,N-dimethyl-4-{1′-[(2R)-3,3,3-trifluoro-2-hydroxy-2-phenylpropanoyl]-4,4′-bipiperidin-1-yl}benzamide] | 48 nM | 86% | 483 nM | 25% |  |  |  |
| CN(C(=O)c1ccc(N2CCC(C3CCN(C(=O)[C@](O)(c4ccccc4)C(F)(F)F)CC3)CC2)cc1Cl)C1CCOC1 (stereo partly drawn) [Example E-53, 2-chloro-N-methyl-N-(tetrahydrofuran-3-yl)-4-{1′-[(2R)-3,3,3-trifluoro-2-hydroxy-2-phenylpropanoyl]-4,4′-bipiperidin-1-yl}benzamide] | 219 nM | 98% | 1600 nM | 34% |  |  |  |
| COc1cccc(C(O)(C(=O)N2CCC(C3CCN(c4ccc(C(=O)N(C)C)c(Cl)c4)CC3)CC2)C(F)(F)C(F)(F)F)c1 (stereo not shown) [Example A-81, 2-chloro-N,N-dimethyl-4-{1′-[3,3,4,4,4-pentafluoro-2-hydroxy-2-(3-methoxyphenyl)butanoyl]-4,4′-bipiperidin-1-yl}benzamide] | 283 nM | 104% | 3670 nM | 25% |  |  |  |
| CN(C)C(=O)c1ccc(N2CCC(C3CCN(C(=O)[C@@](O)(c4ccccc4)C(F)(F)C(F)(F)F)CC3)CC2)nc1Cl (single isomer, unassigned) [Example B-17] | 30 nM | 130% | 854 nM | 39% |  |  |  |
| COC1CN(C(=O)c2ccc(N3CCC(C4CCN(C(=O)[C@](O)(c5ccccc5)C(F)(F)F)CC4)CC3)cc2Cl)C1 [Example E-35, (2R)-3-(1′-{3-chloro-4-[(3-methoxyazetidin-1-yl)carbonyl]phenyl}-4,4′-bipiperidin-1-yl)-1,1,1-trifluoro-3-oxo-2-phenylpropan-2-ol] | 364 nM | 57% | 2460 nM | 19% |  |  |  |
| C#CC(C)(C)C(=O)N1CCC(C2CCN(c3ccc(C(=O)N(C)C)c(Cl)c3)CC2)CC1 [Example A-11, 2-chloro-4-[1′-(2,2-dimethylbut-3-ynoyl)-4,4′-bipiperidin-1-yl]-N,N-dimethylbenzamide] | 512 nM | 125% | 2100 nM | 62% |  |  |  |
| Cc1nnc(CN(C)C(=O)c2ccc(N3CCC(C4CCN(C(=O)[C@](O)(c5ccccc5)C(F)(F)F)CC4)CC3)cc2Cl)o1 [Example E-47, 2-chloro-N-methyl-N-[(5-methyl-1,3,4-oxadiazol-2-yl)methyl]-4-{1′-[(2R)-3,3,3-trifluoro-2-hydroxy-2-phenylpropanoyl]-4,4′-bipiperidin-1-yl}benzamide] | 334 nM | 71% |  | 10% | NO IP |  |  |
| COC(=O)C1CN(C(=O)c2ccc(N3CCC(C4CCN(C(=O)[C@](O)(c5ccccc5)C(F)(F)F)CC4)CC3)cc2Cl)C1 [Example E-32, methyl 1-[(2-chloro-4-{1′-[(2R)-3,3,3-trifluoro-2-hydroxy-2-phenylproanoyl]-4,4′-bipiperidin-1-yl}phenyl)carbonyl]azetidine-3-carboxylate] | 144 nM | 57% | 2260 nM | 22% |  |  |  |
| CN(Cc1ccon1)C(=O)c1ccc(N2CCC(C3CCN(C(=O)c4c(F)cccc4F)CC3)CC2)cc1Cl [Example E-16, 2-chloro-4-{1′-[(2,6-difluorophenyl)carbonyl]-4,4′-bipiperidin-1-yl}-N-(isoxazol-3-ylmethyl)-N-methylbenzamide] | 137 nM | 92% | 1700 nM | 38% |  |  |  |
| CC(C)C(O)(C(=O)N1CCC(C2CCN(c3ccc(C(=O)N4CC(F)(F)C4)c(Cl)c3)CC2)CC1)C(F)(F)F (stereo not shown) [Example E-3, 2-[(1′-{3-chloro-4-[(3,3-difluoroazetidin-1-yl)carbonyl]phenyl}-4,4′-bipiperidin-1-yl)carbonyl]-1,1,1-trifluoro-3-methylbutan-2-ol] | 297 nM | 81% | 127 nM | 30% |  |  |  |
| CN(C)C(=O)c1ccc(N2CCC(C3CCN(C(=O)C(C)(c4ccccc4)C(F)(F)F)CC3)CC2)cc1Cl (stereo not shown) [Example A-16, 2-chloro-N,N-dimethyl-4-[1′-(3,3,3-trifluoro-2-methyl-2-phenylpropanoyl)-4,4′-bipiperidin-1-yl]benzamide] | 14 nM | 109% | 861 nM | 33% |  |  |  |
| CC1(C)CCN(C(=O)c2ccc(N3CCC(C4CCN(C(=O)[C@](O)(c5ccccc5)C(F)(F)F)CC4)CC3)cc2Cl)C1 [Example E-28, (2R)-3-(1′-{3-chloro-4-[(3,3-dimethylpyrrolidin-1-yl)carbonyl]phenyl}-4,4′-bipiperidin-1-yl)-1,1,1-trifluoro-3-oxo-2-phenylpropan-2-ol] | 200 nM | 57% |  | 15% | NO IP |  |  |
| CN(C)C(=O)c1ccc(N2CCC(C3CCN(C(=O)C(O)(C(C)(C)C)C(F)(F)F)CC3)CC2)cc1Cl (racemic) [Example A-4, 2-Chloro-4-(1′-(2-hydroxy-3,3-dimethyl-2-(trifluoromethyl)butanoyl)-[4,4′-bipiperidin]-1-yl)-N,N-dimethylbenzamide] | 29 nM | 104% | 735 nM | 65% |  |  |  |
| CN(C)C(=O)c1ccc(N2CCC(C3CCN(C(=O)C(C)(C)c4cccc(F)c4)CC3)CC2)cc1Cl [Example A-91, 2-chloro-4-{1′-[2-(3-fluorophenyl)-2-methylpropanoyl]-4,4′-bipiperidin-1-yl}-N,N-dimethylbenzamide] | 147 nM | 112% | 2090 nM | 42% |  |  |  |
| CN(C)C(=O)c1ccc(N2CCC(C3CCN(C(=O)C(O)(c4ccccc4)C(F)(F)C(F)(F)C(F)(F)F)CC3)CC2)cc1Cl (stereo not shown) [Example A-55, 2-chloro-4-[1′-(3,3,4,4,5,5,5-heptafluoro-2-hydroxy-2-phenylpentanoyl)-4,4′-bipiperidin-1-yl]-N,N-dimethylbenzamide] | 408 nM |  | 1340 nM |  |  | 93% | 25% |
| CN(C)C(=O)c1ccc(N2CCC(C3CCN(C(=O)C(C)(C)c4ccccc4Cl)CC3)CC2)cc1Cl [Example A-83, 2-chloro-4-{1′-[2-(2-chlorophenyl)-2-methylpropanoyl]-4,4′-bipiperidin-1-yl}-N,N-dimethylbenzamide] | 15 nM | 115% | 594 nM | 74% |  |  |  |
| CN(C)C(=O)c1ccc(N2CCC(C3CCN(C(=O)C(C)(O)C(F)(F)F)CC3)CC2)nc1Cl (stereo not shown) [Example B-11, 2-chloro-N,N-dimethyl-6-[1′-(3,3,3-trifluoro-2-hydroxy-2-methylpropanoyl)-4,4′-bipiperidin-1-yl]pyridine-3-carboxamide] | 177 nM | 116% | 2200 nM | 48% |  |  |  |
| CN(C)C(=O)c1ccc(N2CCC(C3CCN(S(=O)(=O)c4c(Cl)cccc4Cl)CC3)CC2)cc1Cl [Example A-104, 2-chloro-4-{1′-[(2,6-dichlorophenyl)sulfonyl]-4,4′-bipiperidin-1-yl}-N,N-dimethylbenzamide] | 21 nM | 129% | 2340 nM | 67% |  |  |  |
| O=C(c1ccc(N2CCC(C3CCN(C(=O)[C@](O)(c4ccccc4)C(F)(F)F)CC3)CC2)cc1Cl)N1CCC[C@H]1CO [Example E-63, (2R)-3-[1′-(3-chloro-4-{[(2S)-2-(hydroxymethyl)pyrrolidin-1-yl]carbonyl}phenyl)-4,4′-bipiperidin-1-yl]-1,1,1-trifluoro-3-oxo-2-phenylpropan-2-ol] | 21 nM | 86% | 359 nM | 51% |  |  |  |
| CN(C)C(=O)c1ccc(N2CCC(C3CCN(C(=O)C4(c5ccc(Cl)c(Cl)c5)CCC4)CC3)CC2)cc1Cl [Example A-74, 2-chloro-4-(1′-{[1-(3,4-dichlorophenyl)cyclobutyl]carbonyl}-4,4′-bipiperidin-1-yl)-N,N-dimethylbenzamide] | 413 nM | 57% |  | 0% | NO IP |  |  |
| CN(C)C(=O)c1ccc(N2CCC(C3CCN(C(=O)[C@](O)(c4ccccc4)C(F)(F)C(F)(F)F)CC3)CC2)cc1Cl (single isomer, unassigned) [Example A-20] | 35 nM | 146% | 625 nM | 0% |  |  |  |
